The species named for one data set is Homo sapiens. The experiment in a line: In vitro inhibitory activity against LTB4 synthesis in A-23187 stimulated human whole blood (HB1). Format: functional.
The species named for a further data set is Rattus norvegicus. Put plainly: compound was tested for oral activity in the rat using zymosan-inflamed air pouch exudate at 3 hrs post dose(RAP). In kind it is functional.
Data set [1] can be described thus: Solubility was evaluated. Format: physicochemical.
A short description of data set [2]: pKa value was evaluated. In kind it is physicochemical.

Structures are written as SMILES. In brackets after ≈: the same amount, converted by molar mass.

For orientation: IC50 means the midpoint of a concentration-inhibition curve. By ED50 is commonly meant the dose that gives a 50% effect, or the effect in half of the subjects. The low end stands for greater potency, the high end for weaker potency. The solubility is the dissolved amount per volume that the medium holds. A low value points to a poorly soluble substance. In general, pKa refers to the negative logarithm of the acid dissociation constant.

`C/C(=N\OC(=O)N(C)C)c1ccc(Sc2cc(F)cc(C3CCOCC3)c2)cc1` yielded a concentration for half-maximal inhibition (IC50) in the data set listed under Homo sapiens of 2610 nM.
`COC1(c2cc(F)cc(Sc3ccc(/C(C)=N/OC(C)=O)cc3)c2)CCOCC1` returned a 50% inhibitory concentration (IC50) in the data set filed under Homo sapiens of 50 nM. This IC50 is about 52-fold lower than that of the molecule before.
`COC1(c2csc(Sc3ccc4c(c3)OCC/C4=N\OCC#N)c2)CCOCC1` came in with an IC50 in the data set filed under Homo sapiens of 60 nM. The 50% effective dose (ED50) in the data set listed under Rattus norvegicus is 0.15 mg/kg.
In the data set listed under Homo sapiens, `CCOC(=O)CO/N=C(\C)c1ccc(Sc2cc(F)cc(C3(OC)CCOCC3)c2)cc1` came in with a 50% inhibitory concentration (IC50) of 610 nM.
On to `COC1(c2cc(F)cc(Sc3ccc4c(c3)CC/C4=N\OCC#N)c2)CCOCC1`, for which, in the data set listed under Homo sapiens, the IC50 is 30 nM.
`CO[C@]1(c2cnc(S(=O)(=O)c3ccc(/C(C)=N/OCC#N)cc3)s2)CCO[C@@H](C)C1` yielded an IC50 in the data set listed under Homo sapiens of 140 nM. In the data set listed under Rattus norvegicus, this molecule registered an ED50 of 0.5 mg/kg. The molecule further had a solubility in data set [1] of 1 µM (≈ 0.45 µg/mL).
As for `COC1(c2cc(F)cc(Sc3ccc4c(c3)OCC/C4=N\OCC#N)c2)CCOCC1`, in the data set filed under Homo sapiens, the concentration for half-maximal inhibition (IC50) was found to be 40 nM.
In the data set filed under Homo sapiens, `COC1(c2cc(F)cc(Sc3ccc(/C(C)=N/OCC(=O)O)cc3)c2)CCOCC1` came in with an IC50 of 740 nM. Compared with the last molecule, the IC50 is about 18-fold higher.
As for `COC1(c2csc(Sc3ccc4c(c3)OCC/C4=N\O)c2)CCOCC1`, the 50% inhibitory concentration (IC50) in the data set listed under Homo sapiens turned out to be 40 nM.
`CO[C@]1(c2cnc(S(=O)(=O)c3ccc(/C(C)=N/O)cc3)s2)CCO[C@@H](C)C1` returned an IC50 in the data set filed under Homo sapiens of 320 nM. Further, in the data set listed under Rattus norvegicus, the ED50 turned out to be 1 mg/kg. The molecule further showed a solubility in data set [1] of 31 µM (≈ 12.7 µg/mL).
In turn, `CO[C@]1(c2cc(F)cc(S(=O)(=O)c3ccc(/C(C)=N/O)cc3)c2)CCO[C@@H](C)C1` yielded a half-maximal inhibitory concentration (IC50) in the data set listed under Homo sapiens of 20 nM. In the data set listed under Rattus norvegicus, the 50% effect level (ED50) was put at a dose of 0.1 mg/kg. This molecule registered a solubility in data set [1] of 4.6 µM (≈ 1.94 µg/mL).
As to `CO/N=C(\C)c1ccc(Sc2cc(F)cc(C3(OC)CCOCC3)c2)cc1`, inhibition in the data set listed under Homo sapiens was half-maximal at 110 nM (IC50).
The molecule `COC1(c2csc(Sc3ccc4c(c3)CC/C4=N\OCC#N)c2)CCOCC1` registered a half-inhibitory concentration (IC50) in the data set listed under Homo sapiens of 40 nM.
With `COC1(c2csc(Sc3ccc4c(c3)CC/C4=N\O)c2)CCOCC1`, the concentration for half-maximal inhibition (IC50) in the data set listed under Homo sapiens stood at 130 nM.
Turning to `COC1(c2cc(F)cc(Sc3ccc4c(c3)CC/C4=N\O)c2)CCOCC1`, inhibition in the data set filed under Homo sapiens was half-maximal at 290 nM (IC50).
In turn, `COC1(c2cc(F)cc(Sc3ccc4c(c3)OCC/C4=N\O)c2)CCOCC1` gave an IC50 in the data set listed under Homo sapiens of 50 nM.
Consider `COC1(c2cc(F)cc(Sc3ccc(/C(C#N)=N/O)cc3)c2)CCOCC1`, for which the IC50 in the data set filed under Homo sapiens was found to be 250 nM. Moreover, the pKa in data set [2] came to 6.2.
As to `COC1(c2cc(F)cc(Sc3ccc(/C(C)=N/OC(=O)C(C)(C)C)cc3)c2)CCOCC1`, it took 40 nM to reach half-maximal inhibition in the data set filed under Homo sapiens (IC50). In other words, the double-digit nanomolar range.
In the data set filed under Homo sapiens, `COC1(c2cc(F)cc(Sc3ccc(/C(=N/O)C(C)=O)cc3)c2)CCOCC1` returned a half-inhibitory concentration (IC50) of 850 nM. In data set [2], this molecule yielded a pKa of 8.4.
Take `CCOC(=O)c1csc(CO/N=C(\C)c2ccc(Sc3cc(F)cc(C4(OC)CCOCC4)c3)cc2)n1`: in the data set listed under Homo sapiens, inhibition was half-maximal at 150 nM (IC50). That is a sub-micromolar value.
The molecule `CO[C@]1(c2cnc(Sc3ccc(/C(C)=N/O)cc3)s2)CCO[C@@H](C)C1` came in with a half-maximal inhibitory concentration (IC50) in the data set filed under Homo sapiens of 40 nM. In addition, in the data set filed under Rattus norvegicus, the 50% effective dose (ED50) stood at 0.3 mg/kg.
`COC1(c2cc(F)cc(Sc3ccc(/C(C)=N/OCCSc4nnc(C)s4)cc3)c2)CCOCC1` registered an IC50 in the data set filed under Homo sapiens of 230 nM.
Regarding `CO[C@]1(c2cnc(Sc3ccc(/C(C)=N/OCC#N)cc3)s2)CCO[C@@H](C)C1`, in the data set filed under Homo sapiens, the half-maximal inhibitory concentration (IC50) stood at 40 nM. In addition, the 50% effect level in the data set filed under Rattus norvegicus (ED50) was put at a dose of 0.3 mg/kg.
For `CO/N=C(\C)c1ccc(Sc2cc(F)cc([C@@]3(OC)CCO[C@@H](C)C3)c2)cc1` the same measures were 140 nM and 0.15 mg/kg.
In the data set filed under Homo sapiens, `COC1(c2cc(F)cc(Sc3ccc(/C(=N/O)C(F)(F)F)cc3)c2)CCOCC1` registered an IC50 of 280 nM. The molecule further yielded a pKa in data set [2] of 7.68.
On to `COC1(c2cc(F)cc(Sc3ccc(/C(C)=N/OCC#N)cc3)c2)CCOCC1`, for which the IC50 in the data set listed under Homo sapiens stood at 20 nM. That is a double-digit nanomolar value.
Same read-out and setting: to `COC1(c2cc(F)cc(OCc3ccc4c(ccc(=O)n4C)c3)c2)CCOCC1` [ZD-2138] belongs 25 nM.
With `CO[C@]1(c2cc(F)cc(S(=O)(=O)c3ccc(/C(C)=N/OCC#N)cc3)c2)CCO[C@@H](C)C1`, in the data set filed under Homo sapiens, half-maximal inhibition (IC50) was put at 60 nM. Also, the median effective dose (ED50) in the data set listed under Rattus norvegicus was determined as 0.1 mg/kg.
In the case of `COC1(c2cc(F)cc(Sc3ccc(/C(C)=N/OCCF)cc3)c2)CCOCC1`, the IC50 in the data set listed under Homo sapiens was found to be 40 nM. That is a double-digit nanomolar value.
In turn, `COC1(c2cc(F)cc(Sc3ccccc3/C(C)=N/O)c2)CCOCC1` returned an IC50 in the data set filed under Homo sapiens greater than 10000 nM.
Same read-out and setting: to `COC1(c2cc(F)cc(Sc3ccc(/C(C)=N/OC(C)C)cc3)c2)CCOCC1` belongs 920 nM.
Take `CO[C@]1(c2cc(F)cc(Sc3ccc(/C(C)=N/O)cc3)c2)CCO[C@@H](C)C1`: inhibition in the data set filed under Homo sapiens was half-maximal at 40 nM (IC50). The same molecule gave an ED50 in the data set listed under Rattus norvegicus of 0.05 mg/kg. The molecule also had a solubility in data set [1] of 0.6 µM (≈ 0.234 µg/mL).
For the molecule `CCOC(=O)/C(=N\O)c1ccc(Sc2cc(F)cc(C3(OC)CCOCC3)c2)cc1`, the IC50 in the data set filed under Homo sapiens turned out to be 170 nM. This molecule gave a pKa in data set [2] of 9.3.
In the data set listed under Homo sapiens, `COC(=O)C(C)(C)CO/N=C(\C)c1ccc(Sc2cc(F)cc(C3(OC)CCOCC3)c2)cc1` had an IC50 of 420 nM.
Molecule `COC1(c2cc(F)cc(Sc3ccc(/C(=N/O)SC)cc3)c2)CCOCC1` yielded a half-inhibitory concentration (IC50) in the data set filed under Homo sapiens of 190 nM.
Turning to `CO[C@]1(c2cc(F)cc(Sc3ccc(/C(C)=N/OCC#N)cc3)c2)CCO[C@@H](C)C1`, in the data set filed under Homo sapiens, the IC50 amounted to 40 nM. In the data set filed under Rattus norvegicus, this molecule showed a 50% effective dose (ED50) of 0.15 mg/kg.

The values are drawn from ChEMBL document CHEMBL1129182, “Oximes: A new class of methoxytetrahydropyranyl inhibitors of leukotriene biosynthesis with high in vitro and in vivo potency” (Bioorg Med Chem Lett, 1996).
